# Measured values as given in ChEMBL document CHEMBL1123726, “Resolution of racemic carbocyclic analogues of purine nucleosides through the action of adenosine deaminase. Antiviral activity of the carbocyclic 2'-deoxyguanosine enantiomers” (1987).
# Experiments:
# [1] = species on record: Oryctolagus cuniculus; test: Minimum inhibitory concentration against strain MS Herpes simplex virus type 2 (HSV-2) in rabbit kidney cells; type: functional
# [2] = species on record: Oryctolagus cuniculus; test: Minimum inhibitory concentration against strain 377 (TK+) Herpes simplex virus type 1 (HSV-1) in rabbit kidney cells.; type: functional
# [3] = species on record: Oryctolagus cuniculus; test: Compound was evaluated for the virus rating (VR) against Herpes simplex virus type 1 (HSV-1) in rabbit kidney cells.; type: functional
# [4] = species on record: Oryctolagus cuniculus; test: Compound was evaluated for the virus rating (VR) against Herpes simplex virus type 2 (HSV-2) in rabbit kidney cells; type: functional
# [5] = system: Vero; test: Minimum inhibitory concentration was determined for inhibition of cytopathogenic effects produced by strain 377 (TK+) Herpes simplex virus type 1 (HSV-1) in vero cells.; type: functional, cell-based; conditions: Chlorocebus sabaeus
# [6] = system: Vero; test: Minimum inhibitory concentration was determined for inhibition of cytopathogenic effects produced by strain MS Herpes simplex virus type 2 (HSV-2) in vero cells.; type: functional, cell-based; conditions: Chlorocebus sabaeus
# [7] = system: Vero; test: Compound was evaluated for the virus rating (VR) in test 2 against Herpes simplex virus type 1 (HSV-1) in vero cells.; type: functional, Chlorocebus sabaeus
# [8] = system: Vero; test: Compound was evaluated for the virus rating (VR) in test 1 against Herpes simplex virus type 1 (HSV-1) in vero cells.; type: functional, Chlorocebus sabaeus
# [9] = Oryctolagus cuniculus, read-out: MIC50
smiles,measurement,setting,value
Nc1nc(O)c2ncn([C@@H]3C[C@H](CO)[C@@H](O)C3)c2n1 (stereo in doubt; 4b+5b),MIC50,[1],0.8 µg/mL
same,MIC50,[2],0.3 µg/mL
same,VR,[3],7
same,VR,[4],3.7
Nc1nc(N)c2ncn(C3CC(O)C(CO)C3)c2n1 (configuration not stated),MIC50,[5],Minimum inhibitory concentration was determined for inhibition of cytopathogenic effects produced by strain MS Herpes simplex virus type 2 (HSV-2) in vero cells
same,MIC50,[6],Minimum inhibitory concentration was determined for inhibition of cytopathogenic effects produced by strain MS Herpes simplex virus type 2 (HSV-2) in vero cells
Nc1nc(O)c2ncn([C@@H]3C[C@H](CO)[C@@H](O)C3)c2n1 (stereo in doubt; 4b),MIC50,[1]; [9],0.7 µg/mL
same,MIC50,[2]; [9],0.3 µg/mL
same,VR,[3],5.9
same,VR,[4],3.8
Nc1nc2c(ncn2[C@H]2C[C@@H](CO)[C@H](O)C2)c(=O)[nH]1,VR,[7],1.1
same,VR,[8],0.8
